How the values were obtained:
[1] = biological target: T1, Thyroid hormone receptor alpha (Homo sapiens, UniProt P10827)
T1 sequence (P10827 whole entry): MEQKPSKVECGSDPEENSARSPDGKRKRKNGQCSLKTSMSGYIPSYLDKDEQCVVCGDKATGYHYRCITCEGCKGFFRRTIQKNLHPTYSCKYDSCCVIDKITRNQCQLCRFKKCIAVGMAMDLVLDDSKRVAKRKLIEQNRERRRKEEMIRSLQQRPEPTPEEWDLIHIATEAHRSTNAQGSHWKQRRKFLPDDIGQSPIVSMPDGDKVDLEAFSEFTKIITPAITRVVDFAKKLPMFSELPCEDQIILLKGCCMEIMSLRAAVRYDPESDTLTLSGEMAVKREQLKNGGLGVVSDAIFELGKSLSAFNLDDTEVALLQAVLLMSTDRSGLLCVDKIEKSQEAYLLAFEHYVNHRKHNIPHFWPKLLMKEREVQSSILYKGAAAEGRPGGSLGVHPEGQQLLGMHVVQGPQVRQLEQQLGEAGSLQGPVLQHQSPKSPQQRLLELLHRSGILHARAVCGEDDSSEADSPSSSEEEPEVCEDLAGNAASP
Description: Efficacy against TRAF-alpha-1 reporter cells

[2] = biological target: T2, Thyroid hormone receptor beta (Homo sapiens, UniProt P10828)
T2 sequence (P10828 whole entry): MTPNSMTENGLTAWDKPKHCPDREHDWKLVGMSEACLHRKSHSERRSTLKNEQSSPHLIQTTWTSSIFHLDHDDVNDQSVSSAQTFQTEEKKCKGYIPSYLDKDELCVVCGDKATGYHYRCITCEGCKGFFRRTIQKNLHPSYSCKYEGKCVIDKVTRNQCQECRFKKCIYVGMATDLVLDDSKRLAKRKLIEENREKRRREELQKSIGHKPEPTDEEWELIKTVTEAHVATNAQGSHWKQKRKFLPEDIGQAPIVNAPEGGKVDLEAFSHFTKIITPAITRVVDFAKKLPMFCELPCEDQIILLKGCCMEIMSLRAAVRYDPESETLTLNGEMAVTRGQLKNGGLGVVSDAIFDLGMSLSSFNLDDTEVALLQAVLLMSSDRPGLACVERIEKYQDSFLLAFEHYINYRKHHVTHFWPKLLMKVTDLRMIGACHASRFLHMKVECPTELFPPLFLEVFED
Description: Efficacy against TRAF-beta-1 reporter cells

[3] = biological target: T1, Thyroid hormone receptor alpha; remark: listed apart in the source
Description: Inhibition of human TR-alpha-1 by radioligand binding assay

[4] = biological target: T2, Thyroid hormone receptor beta; remark: listed apart in the source
Description: Inhibition of human TR-beta-1 by radioligand binding assay

| SMILES | EC50 [1] [nM] | EC50 [2] [nM] | IC50 [3] [nM] | IC50 [4] [nM] |
| --- | --- | --- | --- | --- |
| Cc1cc2nc(C(=O)O)ccc2c(C)c1Oc1ccc(O)c(C(C)C)c1 | 83 | 49 | 200 | 15 |
| CC(C)c1cc(Oc2c(Cl)cc3[nH]c(C(=O)O)cc3c2Cl)ccc1O | 10 | – | 1.4 | – |
| CC(C)c1cc(Oc2c(Br)cc3c(c2Br)CC(C(=O)O)C3)ccc1O (stereo not given) | 4.1 | 4.3 | 38 | 8.5 |
| CC(C)c1cc(Oc2c(Cl)cc3[nH]c(C(=O)O)cc(=O)c3c2Cl)ccc1O | – | – | 3500 | 870 |
| Cc1cc2[nH]c(C(=O)O)cc(=O)c2c(C)c1Oc1ccc(O)c(C(C)C)c1 | – | – | 620 | 240 |
| CC(C)c1cc(Oc2c(Br)cc3nc(C(=O)O)cc(O)c3c2Br)ccc1O | – | – | 250 | 51 |
| CC(C)c1cc(Oc2c(Br)cc3[nH]c(C(=O)O)cc3c2Br)ccc1O | 10 | 4.2 | 2.5 | 0.28 |

Source: ChEMBL document CHEMBL1138993, “Thyroid receptor ligands. Part 5: novel bicyclic agonist ligands selective for the thyroid hormone receptor beta” (Bioorg Med Chem Lett, 2006)
